Laboratory results reported in US20260345584A1, “METHODS AND PHARMACEUTICAL COMPOSITIONS FOR TREATING CHEMOTHERAPY-INDUCED PERIPHERAL NEUROPATHY WITH EG5 INHIBITORS” (UNIVERSITY OF MIAMI, priority 2023, published 2026).

Columns and labels:
[1] = test system: microtubule detyrosination in keratinocytes; assay: GluTub immunofluorescence of detyrosinated microtubules in zebrafish caudal fin keratinocytes; type: in vivo
Method: (§1) The stock solution was divided into 20-30 μl aliquots and stored at −20 °C until use (maximal 6 months). Immediately prior to use, paclitaxel was diluted in Ringer's solution and added to dechorionated larval zebrafish. The larval fish were placed individually or in small groups into wells of a 12-well plate containing the treatment solutions. The control group was 0.05% DMSO. Plates were incubated at 28.5 °C and protected from light. Treatment lengths are indicated in the Drawings, Description of the Drawings, and Examples where appropriate. […] EMD534085, Eg5 inhibitor (MedChemExpress, Cat. No. HY-15000) was diluted in 100% DMSO to make a 10 mM stock solution and stored at −20 °C. […] The solutions were exchanged every 48 hr.
Larval fish were transferred into […] glass vials and fixed in 4% paraformaldehyde (PFA)/1× Phosphate-buffered saline (PBS) for 1.5 hr at room temperature, with gentle rocking. Following a 5-minute incubation in 1×PBS+0.1% Tween-20 (PBST), zebrafish were permeabilized in 1×PBS+0.1% Triton X-100 for 10-30 min. Larval fish were transferred into 2 ml reaction tubes and incubated in blocking buffer (1×PBST+5% BSA) for 30 min at room temperature, with rocking. Larval fish were further incubated overnight in antibody solution (Millipore Sigma, Cat. No. AB3201, 1:300 rabbit anti-GluTub; Sigma, Cat No. T6793, 1:500 mouse anti-acetylated tubulin) in blocking buffer at 4 °C, on a rotator. The next morning, larval fish were transferred into 6-well plates and washed 4×15 min in 1×PBST at room temperature, with rocking. This was followed by incubation in secondary antibody (goat anti-rabbit Cy5, Abcam, Cat. No. ab97077; goat anti-mouse Cy3, Abcam, Cat. No. ab97035) and 1:10,000 Hoechst 33342 (ThermoFisher Scientific, Cat. No. 62249, 20 mM solution) in blocking buffer for 1 hr at room temperature, with rocking. Fish were covered to avoid bleaching. […]
Fluorescence intensities were measured using the Imaris MATLAB plugin or Fiji. A line was typically placed over the region of interest and the fluorescence automatically quantified. The values were normalized to nuclear (Hoechst33342) fluorescence intensities within the same fish and region to obtain an intensity ratio.
Stabilized microtubules undergo a modification whereby the terminal tyrosine residue was removed, leading to detyrosination (dMT) (Roll-Mecak et al., 2020, Developmental cell 54: 7-20), which was associated with particularly long-term stabilized microtubule populations (Khawaja et al., 1988, The Journal of cell biology 106: 141-149). Exposure of the penultimate glutamate residue can be detected using a GluTub antibody. […]

dfMTs in keratinocytes = assay: dfMT fascicle width; type: in vivo, zebrafish; details: 96 hr
Method: as §1
Larval fish were transferred into […] glass vials and fixed in 4% paraformaldehyde (PFA)/1× Phosphate-buffered saline (PBS) for 1.5 hr at room temperature, with gentle rocking. Following a 5-minute incubation in 1×PBS+0.1% Tween-20 (PBST), zebrafish were permeabilized in 1×PBS+0.1% Triton X-100 for 10-30 min. Larval fish were transferred into 2 ml reaction tubes and incubated in blocking buffer (1×PBST+5% BSA) for 30 min at room temperature, with rocking. […]
dfMT thicknesses (defined as the mean width of a given dfMT) was manually measured at high magnification using the Slice mode in Imaris and the Line tool for measuring the distance between two points. […]

Row | Compound | microtubule detyrosination with Eg5 inhibition ([1]; EMD534085-treated animals, 96 hr) | effect on microtubule fasciculation and detyrosination ([1]; EMD534085 co-administered with 100 nM and 22 μM paclitaxel) | fascicle width of dMTs (dfMTs in keratinocytes; 100 nM paclitaxel) [μm] | fascicle width of dMTs (dfMTs in keratinocytes; 22 μM paclitaxel) [μm]
1 | CN(C)CCNC(=O)NC[C@H]1CC[C@@H]2[C@H](O1)c1cc(C(F)(F)F)ccc1N[C@H]2c1ccccc1 [EMD534085] | not modified when animals were treated with EMD534085 | rescued microtubule fasciculation but not detyrosination |  | 
2 | CC(=O)O[C@H]1C(=O)[C@@]2(C)[C@H]([C@H](OC(=O)c3ccccc3)[C@]3(O)C[C@H](OC(=O)[C@H](O)[C@@H](NC(=O)c4ccccc4)c4ccccc4)C(C)=C1C3(C)C)[C@]1(OC(C)=O)CO[C@@H]1C[C@@H]2O [paclitaxel] |  |  | 6.0±0.49 | 3.4±0.17
